Reference: patent publication US6987114B1, “Antiviral pyrimidinedione derivatives and process for the preparation thereof” (Samjin Pharmaceutical Co., Ltd, priority 1999, dated 2006)
Converted amounts (≈) assume the structure as drawn. Read-outs that look alike come from different tables or passages of the source.

Legend:
HIV = assay: microbe, parasite or virus in culture; type: cell-based
In short: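 MT-4 cells (2.5×10^5 cells/ml) infected with 1000 CCID50 HIV, added at once to compound dilutions, incubated 4 or 5 days at 37° C. Protection from virus-induced cytopathic effect read by MTT; cytotoxicity from MTT viability of mock-infected cells in parallel.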

mock-infected MT-4 cells = assay: Cytotoxicity based on viability of mock-infected host cells (MTT method); type: cell-based; conditions: mock-infected MT-4 cells, MTT method, 4 or 5 days at 37° C.
In short: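 Mock-infected MT-4 cells at 2.5×10^5 cells/ml were exposed to various concentrations of test compound, run in parallel with HIV-infected (1000 CCID50) cultures. After 4 or 5 days at 37° C., host-cell viability was read by MTT.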

[1] = Human immunodeficiency virus 1, MT4, HIV-infected MT-4 cells, MTT method, 4 or 5 days at 37° C., read-out: ED50 (the source's name)
[2] = Human immunodeficiency virus 1, MT4, read-out: ED50

| EC50 (HIV; [1]) [µg/mL] | melting point [°C] | Structure (SMILES) | CD50 (mock-infected MT-4 cells) [µg/mL] | EC50 (HIV; [2]) [µg/mL] |
| --- | --- | --- | --- | --- |
| > 100 | 182 to 183 | Cc1cc(C)cc(Oc2c(C(C)C)c(=O)[nH]c(=O)n2Cc2cc(C(F)(F)F)cc(C(F)(F)F)c2)c1 [Example 64, 1-[3,5-Bis(Trifluoromethyl)benzyl]-5-isopropyl-6-(3,5-dimethylphenoxy)-2,4-pyrimidinedione] | >100.00 | – |
| > 100 | 241 to 243 | CCc1c(C(=O)c2cc(C)cc(C)c2)n(Cc2cc(C(F)(F)F)cc(C(F)(F)F)c2)c(=O)[nH]c1=O [Example 65, 1-[3,5-Bis(Trifluoromethyl)benzyl]-5-ethyl-6-(3,5-dimethyl-benzoyl)-2,4-pyrimidinedione] | >100.00 | – |
| 1.75 (≈ 3.41 µM) | 178 to 180 | Cc1cc(C)cc(C(=O)c2c(C(C)C)c(=O)[nH]c(=O)n2Cc2cc(C(F)(F)F)cc(C(F)(F)F)c2)c1 [Example 66, 1-[3,5-Bis(Trifluoromethyl)benzyl]-5-isopropyl-6-(3,5-dimethyl-benzoyl)-2,4-pyrimidinedione] | 8.14 | – |
| 0.008 (≈ 0.0199 µM) | 214 to 216 | CCc1c(Sc2cc(C)cc(C)c2)n(Cc2cc(F)ccc2F)c(=O)[nH]c1=O [Example 67, 1-(2,5-Difluorobenzyl)-5-ethyl-6-(3,5-dimethylphenyl)thio-2,4-pyrimidinedione] | 12.40 | – |
| 0.005 (≈ 0.012 µM) | 192 to 194 | Cc1cc(C)cc(Sc2c(C(C)C)c(=O)[nH]c(=O)n2Cc2cc(F)ccc2F)c1 [Example 68, 1-(2,5-Difluorobenzyl)-5-isopropyl-6-(3,5-dimethylphenyl)thio-2,4-pyrimidinedione] | 4.15 | – |
| 0.034 (≈ 0.088 µM) | 231 to 233 | CCc1c(Oc2cc(C)cc(C)c2)n(Cc2cc(F)ccc2F)c(=O)[nH]c1=O [Example 69, 1-(2,5-Difluorobenzyl)-5-ethyl-6-(3,5-dimethylphenoxy)-2,4-pyrimidinedione] | >100.00 | – |
| 0.014 (≈ 0.035 µM) | 214 to 216 | Cc1cc(C)cc(Oc2c(C(C)C)c(=O)[nH]c(=O)n2Cc2cc(F)ccc2F)c1 [Example 70, 1-(2,5-Difluorobenzyl)-5-isopropyl-6-(3,5-dimethylphenoxy)-2,4-pyrimidinedione] | >100.00 | – |
| 0.004 (≈ 0.01 µM) | 135 to 137 | CCc1c(C(=O)c2cc(C)cc(C)c2)n(Cc2cc(F)ccc2F)c(=O)[nH]c1=O [Example 71, 1-(2,5-Difluorobenzyl)-5-ethyl-6-(3,5-dimethylbenzoyl)-2,4-pyrimidinedione] | >100.00 | – |
| 0.003 (≈ 0.00727 µM) | 205 to 207 | Cc1cc(C)cc(C(=O)c2c(C(C)C)c(=O)[nH]c(=O)n2Cc2cc(F)ccc2F)c1 [Example 72, 1-(2,5-Difluorobenzyl)-5-isopropyl-6-(3,5-dimethylbenzoyl)-2,4-pyrimidinedione] | 5.26 | – |
| 0.016 (≈ 0.0398 µM) | 219 to 221 | CCc1c(Sc2cc(C)cc(C)c2)n(Cc2cc(F)cc(F)c2)c(=O)[nH]c1=O [Example 73, 1-(3,5-Difluorobenzyl)-5-ethyl-6-(3,5-dimethylphenyl)thio-2,4-pyrimidinedione] | >100.00 | – |
| 0.013 (≈ 0.0312 µM) | 203 to 205 | Cc1cc(C)cc(Sc2c(C(C)C)c(=O)[nH]c(=O)n2Cc2cc(F)cc(F)c2)c1 [Example 74, 1-(3,5-Difluorobenzyl)-5-isopropyl-6-(3,5-dimethylphenyl)thio-2,4-pyrimidinedione] | 10.50 | – |
| > 14.3 | 178 to 180 | CCc1c(Oc2cc(C)cc(C)c2)n(Cc2cc(F)cc(F)c2)c(=O)[nH]c1=O [Example 75, 1-(3,5-Difluorobenzyl)-5-ethyl-6-(3,5-dimethylphenoxy)-2,4-pyrimidinedione] | 14.30 | – |
| 0.022 (≈ 0.0549 µM) | 186 to 189 | Cc1cc(C)cc(Oc2c(C(C)C)c(=O)[nH]c(=O)n2Cc2cc(F)cc(F)c2)c1 [Example 76, 1-(3,5-Difluorobenzyl)-5-isopropyl-6-(3,5-dimethylphenoxy)-2,4-pyrimidinedione] | 12.10 | – |
| 0.003 (≈ 0.00753 µM) | 165 to 167 | CCc1c(C(=O)c2cc(C)cc(C)c2)n(Cc2cc(F)cc(F)c2)c(=O)[nH]c1=O [Example 77, 1-(3,5-Difluorobenzyl)-5-ethyl-6-(3,5-dimethylbenzoyl)-2,4-pyrimidinedione] | 7.0 | – |
| 0.0033 (≈ 0.008 µM) | 207 to 209 | Cc1cc(C)cc(C(=O)c2c(C(C)C)c(=O)[nH]c(=O)n2Cc2cc(F)cc(F)c2)c1 [Example 78, 1-(3,5-Difluorobenzyl)-5-isopropyl-6-(3,5-dimethylbenzoyl)-2,4-pyrimidinedione] | 7.1 | – |

| Structure (SMILES) | EC50 (HIV; [1]) [µg/mL] | melting point [°C] | CD50 (mock-infected MT-4 cells) [µg/mL] | EC50 (HIV; [2]) [µg/mL] |
| --- | --- | --- | --- | --- |
| CCc1c(Sc2cc(C)cc(C)c2)n(Cc2cc(Cl)cc(Cl)c2)c(=O)[nH]c1=O [Example 79, 1-(3,5-Dichlorobenzyl)-5-ethyl-6-(3,5-dimethylphenyl)thio-2,4-pyrimidinedione] | – | 180 to 182 | 24.77 | 0.052 (≈ 0.119 µM) |
| Cc1cc(C)cc(Sc2c(C(C)C)c(=O)[nH]c(=O)n2Cc2cc(Cl)cc(Cl)c2)c1 [Example 80, 1-(3,5-Dichlorobenzyl)-5-isopropyl-6-(3,5-dimethylphenyl)thio-2,4-pyrimidinedione] | – | 194 to 196 | 46.83 | 0.049 (≈ 0.109 µM) |
| CCc1c(Oc2cc(C)cc(C)c2)n(Cc2cc(Cl)cc(Cl)c2)c(=O)[nH]c1=O [Example 81, 1-(3,5-Dichlorobenzyl)-5-ethyl-6-(3,5-dimethylphenoxy)-2,4-pyrimidinedione] | – | 194 to 196 | >100.00 | 1.16 (≈ 2.77 µM) |
| Cc1cc(C)cc(Oc2c(C(C)C)c(=O)[nH]c(=O)n2Cc2cc(Cl)cc(Cl)c2)c1 [Example 82, 1-(3,5-Dichlorobenzyl)-5-isopropyl-6-(3,5-dimethylphenoxy)-2,4-pyrimidinedione] | – | 234 to 236 | 36.15 | 0.173 (≈ 0.399 µM) |
| CCc1c(C(=O)c2cc(C)cc(C)c2)n(Cc2cc(Cl)cc(Cl)c2)c(=O)[nH]c1=O [Example 83, 1-(3,5-Dichlorobenzyl)-5-ethyl-6-(3,5-dimethylbenzoyl)-2,4-pyrimidinedione] | – | 223 to 225 | 3.10 | 0.021 (≈ 0.0487 µM) |
| Cc1cc(C)cc(C(=O)c2c(C(C)C)c(=O)[nH]c(=O)n2Cc2cc(Cl)cc(Cl)c2)c1 [Example 84, 1-(3,5-Dichlorobenzyl)-5-isopropyl-6-(3,5-dimethylbenzoyl)-2,4-pyrimidinedione] | – | 220 to 222 | 7.88 | 0.024 (≈ 0.0539 µM) |
| CCc1c(Sc2cc(C)cc(C)c2)n(Cc2cc(Br)cc(Br)c2)c(=O)[nH]c1=O [Example 85, 1-(3,5-Dibromobenzyl)-5-ethyl-6-(3,5-dimethylphenyl)thio-2,4-pyrimidinedione] | – | 214 to 215 | 13.17 | 0.13 (≈ 0.248 µM) |
